Laboratory results published in patent EP0336446A1, “Gene and gene product for the production of beta-lactam-compounds” (BIOCHEMIE GESELLSCHAFT M.B.H., priority 1988, dated 1989).
“And” between values parts separate entries of the source, which are not always exact repeats. Equal values may be shown once.

Columns and labels:
[1] = target: T1, PAT (Penicillium chrysogenum, UniProt P15802); test: Microbiological test of 6-APA-PaCoA acyltransferase activity (acylation of 6-APA with PaCoA to Penicillin V), indicator strain Micrococcus luteus ATCC 9341/BC 85; assay type: biochemical, Penicillium chrysogenum P2/ATCC 48271; settings: for 6-APA-PaCoA Transacylierungsaktivität (mm HH Ø): Stabilisierung, 5% Sorbit / 1 mM PMSF / 1% BSA / 10% Glycerin / 5% Mannit / 100 µg 6-APA/ml
T1 sequence (P15802 103-357 limits assumed): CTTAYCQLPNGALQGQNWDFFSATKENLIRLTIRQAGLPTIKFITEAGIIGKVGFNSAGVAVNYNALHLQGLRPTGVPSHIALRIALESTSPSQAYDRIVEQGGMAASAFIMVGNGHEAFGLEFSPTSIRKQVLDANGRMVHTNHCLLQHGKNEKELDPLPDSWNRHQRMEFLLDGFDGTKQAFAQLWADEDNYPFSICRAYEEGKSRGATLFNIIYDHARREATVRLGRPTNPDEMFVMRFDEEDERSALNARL
T1 sequence (P15802 1-102 limits assumed): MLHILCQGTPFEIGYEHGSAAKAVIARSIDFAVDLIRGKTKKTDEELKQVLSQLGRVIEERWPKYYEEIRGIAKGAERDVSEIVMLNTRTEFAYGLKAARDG

[2] = target: T1, PAT; test: Substrate specificity of purified PAT (fraction AL 278/2), specific enzyme activity by HPLC; assay type: biochemical, Penicillium chrysogenum P2/ATCC 48271; settings: labelled substance = Acylakzeptor

SMILES	Als Vergleich Transacylierung 6-APA + PaCoA → Penicillin V [1]	mittels HPLC bestimmte spezifische Enzymaktivität (mU/mg Protein) A1 278/2 ([2]; Acyldonator PaCoA)	mittels HPLC bestimmte spezifische Enzymaktivität (mU/mg Protein) A1 278/2 ([2]; Acyldonator PeCoA)	6-APA-PaCoA Transacylierungsaktivität (mm HH Ø) ([1]; 24 h bei +4°C, reaction 30', control ohne Zusatz Spur)	6-APA-PaCoA Transacylierungsaktivität (mm HH Ø) ([1]; 24 h bei +4°C, reaction sofort, control ohne Zusatz 0)	6-APA-PaCoA Transacylierungsaktivität (mm HH Ø) ([1]; 24 h bei -20°C, reaction 30', control ohne Zusatz 38)	6-APA-PaCoA Transacylierungsaktivität (mm HH Ø) ([1]; 24 h bei -20°C, reaction sofort, control ohne Zusatz 15.2)	6-APA-PaCoA Transacylierungsaktivität (mm HH Ø) ([1]; Testung sofort, reaction 30', control ohne Zusatz 33.4)	6-APA-PaCoA Transacylierungsaktivität (mm HH Ø) ([1]; Testung sofort, reaction sofort, control ohne Zusatz 21.5)
CC1(C)S[C@@H]2[C@H](N)C(=O)N2[C@H]1C(=O)O [6-APA, 6-Aminopenicillansäure]	17.0 mm and 23.2 mm and 26.9 mm and 25.9 mm	393 mU/mg Protein	329 mU/mg Protein	–	–	–	–	–	–
OCC(O)CO [Glycerin]	–	–	–	11.5 mm	0 mm	38 mm	15.2 mm	33.1 mm	22.0 mm
